Active and inactive are the calls of the source. No cut-off for these calls is given here.
Key:
[1] = target: Signal transducer and activator of transcription 3 (Homo sapiens) (UniProt P40763); test: Inhibition of STAT3 in human SK-OV-3 cells assessed as downregulation of STAT3 expression in nuclei at 0.2 uM incubated for 24 hrs by Hoechst33342 staining based immunofluorescence assay; assay type: cell-based
A2780 [2] = test: Induction of cell cycle arrest in human A2780 cells assessed as reduction of CDK4 expression at 0.8 uM incubated for 24 hrs by flow cytometry (reference value: 93.6 %); assay type: functional; design: scale not given: the % may be the effect or the level left
SK-OV-3 [3] = test: Inhibition of colony formation in human SK-OV-3 cells assessed as reduction in colony size incubated for 10 days by crystal violet staining based analysis; assay type: functional, cell-based; settings: time 10.0 day
A2780 [4] = test: Induction of apoptosis in human A2780 cells assessed as late apoptotic cells at 0.2 uM incubated for 24 hrs by Annexin V-FITC/7-AAD staining based flow cytometry (reference value: 2.1 %); assay type: functional
A2780 [5] = test: Induction of apoptosis in human A2780 cells assessed as early apoptotic cells at 0.8 uM incubated for 24 hrs by Annexin V-FITC/7-AAD staining based flow cytometry (reference value: 1.9 %); assay type: functional
A2780 [6] = test: Induction of cell cycle arrest in human A2780 cells assessed as reduction of Cyclin D1 expression at 0.4 uM incubated for 24 hrs by flow cytometry (reference value: 92.5 %); assay type: functional; design: scale not given: the % may be the effect or the level left
SK-OV-3 [7] = test: Induction of apoptosis in human SK-OV-3 cells assessed as increase in caspase-3 activity at 0.4 uM incubated for 24 hrs by flow cytometry (reference value: 4.6 %); assay type: functional
SK-OV-3 [8] = test: Induction of apoptosis in human SK-OV-3 cells assessed as increase in caspase-3 activity at 0.8 uM incubated for 24 hrs by flow cytometry (reference value: 4.6 %); assay type: functional
[9] = target: Signal transducer and activator of transcription 3 (Homo sapiens) (UniProt P40763); test: Inhibition of STAT3 in human A2780 cells assessed as downregulation of STAT3 phosphorylation at Ser727 residue in nuclei at 0.2 uM incubated for 24 hrs by Hoechst33342 staining based immunofluorescence assay; assay type: cell-based
A2780 [10] = test: Antiproliferative activity against human A2780 cells assessed as inhibition of cell growth incubated for 72 hrs by MTT assay; assay type: functional, cell-based; settings: A2780, 72 h
Mitochondrial membrane = test: Induction of mitochondrial membrane potential loss in human A2780 cells at 0.4 uM incubated for 24 hrs by JC-1 staining based flow cytometry (reference value: 81 %)
[11] = target: Tyrosine-protein kinase JAK2 (Homo sapiens) (UniProt O60674); test: Inhibition of JAK2 in human SK-OV-3 cells assessed as downregulation of JAK2 expression at 0.1 to 0.4 uM incubated for 24 hrs by Western blotting analysis; assay type: cell-based; settings: dose 0.1-0.4 µM
A2780 [12] = test: Induction of cell cycle arrest in human A2780 cells assessed as accumulation of cells at S phase at 0.2 uM incubated for 24 hrs by BrdU staining based flow cytometry (reference value: 51.6 %); assay type: functional
A2780 [13] = test: Induction of cell cycle arrest in human A2780 cells assessed as accumulation of cells at S phase at 0.8 uM incubated for 24 hrs by BrdU staining based flow cytometry (reference value: 51.6 %); assay type: functional
SK-OV-3 [14] = test: Antitumor activity against human SK-OV-3 cells xenografted in BALB/c mouse assessed as reduction in tumor weight at 5 mg/kg,ip administrated for 21 consecutive days; assay type: functional, organism-based
SK-OV-3 [15] = test: Induction of cell cycle arrest in human SK-OV-3 cells assessed as reduction of Cyclin D1 expression at 0.4 uM incubated for 24 hrs by flow cytometry (reference value: 93.8 %); assay type: functional; design: scale not given: the % may be the effect or the level left
A2780 [16] = test: Induction of apoptosis in human A2780 cells assessed as increase in caspase-8 activity at 0.2 uM incubated for 24 hrs by flow cytometry (reference value: 1.2 %); assay type: functional
SK-OV-3 [17] = test: Induction of cell cycle arrest in human SK-OV-3 cells assessed as accumulation of cells at S phase at 0.2 uM incubated for 24 hrs by BrdU staining based flow cytometry (reference value: 33.6 %); assay type: functional
A2780 [18] = test: Induction of apoptosis in human A2780 cells assessed as viable cells at 0.2 uM incubated for 24 hrs by Annexin V-FITC/7-AAD staining based flow cytometry (reference value: 95 %); assay type: functional; settings: read-out: Activity
A2780 [19] = test: Induction of cell cycle arrest in human A2780 cells assessed as reduction of CDK4 expression at 0.2 uM incubated for 24 hrs by flow cytometry (reference value: 93.6 %); assay type: functional; design: scale not given: the % may be the effect or the level left
[20] = target: Signal transducer and activator of transcription 3 (Homo sapiens) (UniProt P40763); test: Inhibition of STAT3 in human SK-OV-3 cells assessed as downregulation of total STAT3 expression incubated for 24 hrs by Western blotting analysis; assay type: cell-based
[21] = target: Signal transducer and activator of transcription 3 (Homo sapiens) (UniProt P40763); test: Inhibition of STAT3 in human A2780 cells assessed as downregulation of cytoplasmic STAT3 phosphorylation at Ser727 residue at 0.2 uM incubated for 24 hrs by Hoechst33342 staining based immunofluorescence assay; assay type: cell-based
SK-OV-3 [22] = test: Inhibition of human SK-OV-3 cells spheroid formation assessed as reduction in spheroid number at 0.1 to 0.4 uM incubated for 10 days by inverted microscopic analysis; assay type: functional, cell-based; settings: dose 0.1-0.4 µM, time 10.0 day
[23] = target: Signal transducer and activator of transcription 3 (Homo sapiens) (UniProt P40763); test: Inhibition of STAT3 in human SK-OV-3 cells assessed as downregulation of STAT3 phosphorylation at Ser727 residue incubated for 24 hrs by Western blotting analysis; assay type: cell-based
SK-OV-3 [24] = test: Antitumor activity against human SK-OV-3 cells xenografted in BALB/c mouse assessed as appearance of loosely arranged cells in tumor tissue at 2 to 5 mg/kg,ip administrated for 21 consecutive days by hematoxylin and eosin staining based assay; assay type: functional, organism-based; settings: dose 2-5 mg/kg
[25] = target: Signal transducer and activator of transcription 3 (Homo sapiens) (UniProt P40763); test: Inhibition of STAT3 in human SK-OV-3 cells assessed as downregulation of STAT3 phosphorylation at Tyr705 residue incubated for 24 hrs by Western blotting analysis; assay type: cell-based
SK-OV-3 [26] = test: Antiproliferative activity against human SK-OV-3 cells assessed as decrease in CD44 positive CD24 negative cells expression at 0.4 uM incubated for 24 hrs by FITC staining based flow cytometry (reference value: 85.6 %); assay type: functional; design: scale not given: the % may be the effect or the level left
[27] = Toxicity in BALB/c mouse xenografted with human SK-OV-3 cells assessed as change in body weight at 2 to 5 mg/kg,ip administrated for 21 consecutive days; assay type: organism-based; settings: in vivo, dose 2-5 mg/kg
SK-OV-3 [28] = test: Induction of cell cycle arrest in human SK-OV-3 cells assessed as accumulation of cells at G2/M phase at 0.2 uM incubated for 24 hrs by BrdU staining based flow cytometry (reference value: 6.3 %); assay type: functional
[29] = target: Signal transducer and activator of transcription 3 (Homo sapiens) (UniProt P40763); test: Inhibition of STAT3 in human SK-OV-3 cells assessed as downregulation of Mcl-1 expression at 0.1 to 0.4 uM incubated for 24 hrs by Western blotting analysis; assay type: cell-based; settings: dose 0.1-0.4 µM
SK-OV-3 [30] = test: Induction of apoptosis in human SK-OV-3 cells assessed as increase in caspase-8 activity at 0.4 uM incubated for 24 hrs by flow cytometry (reference value: 2.5 %); assay type: functional
SK-OV-3 [31] = test: Induction of apoptosis in human SK-OV-3 cells assessed as necrotic cells at 0.4 uM incubated for 24 hrs by Annexin V-FITC/7-AAD staining based flow cytometry (reference value: 0.6 %); assay type: functional
A2780 [32] = test: Inhibition of human A2780 cells spheroid formation assessed as reduction in spheroid size at 0.1 to 0.4 uM incubated for 10 days by inverted microscopic analysis; assay type: functional, cell-based; settings: dose 0.1-0.4 µM, time 10.0 day

Sequence of Signal transducer and activator of transcription 3 (Homo sapiens) (P40763 whole entry): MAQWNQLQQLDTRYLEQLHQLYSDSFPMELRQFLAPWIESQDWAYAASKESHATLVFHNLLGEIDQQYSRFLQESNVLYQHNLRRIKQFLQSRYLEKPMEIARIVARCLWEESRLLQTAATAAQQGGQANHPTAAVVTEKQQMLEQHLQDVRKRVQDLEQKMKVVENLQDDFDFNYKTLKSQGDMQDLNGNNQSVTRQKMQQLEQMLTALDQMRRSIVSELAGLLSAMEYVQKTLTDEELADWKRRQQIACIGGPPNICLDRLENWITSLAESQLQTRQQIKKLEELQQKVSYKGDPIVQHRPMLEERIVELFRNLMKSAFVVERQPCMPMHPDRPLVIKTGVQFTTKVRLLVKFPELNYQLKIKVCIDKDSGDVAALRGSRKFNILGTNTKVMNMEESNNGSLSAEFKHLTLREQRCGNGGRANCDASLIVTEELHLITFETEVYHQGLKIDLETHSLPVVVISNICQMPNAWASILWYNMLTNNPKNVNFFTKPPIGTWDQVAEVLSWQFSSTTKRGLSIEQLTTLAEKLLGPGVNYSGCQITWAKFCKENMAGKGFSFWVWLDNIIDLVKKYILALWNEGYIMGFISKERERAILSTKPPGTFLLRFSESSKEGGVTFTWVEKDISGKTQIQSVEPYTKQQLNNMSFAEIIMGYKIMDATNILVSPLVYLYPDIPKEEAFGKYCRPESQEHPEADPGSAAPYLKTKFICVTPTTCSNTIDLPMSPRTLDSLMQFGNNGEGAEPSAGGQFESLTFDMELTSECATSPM
Sequence of Tyrosine-protein kinase JAK2 (Homo sapiens) (O60674 whole entry): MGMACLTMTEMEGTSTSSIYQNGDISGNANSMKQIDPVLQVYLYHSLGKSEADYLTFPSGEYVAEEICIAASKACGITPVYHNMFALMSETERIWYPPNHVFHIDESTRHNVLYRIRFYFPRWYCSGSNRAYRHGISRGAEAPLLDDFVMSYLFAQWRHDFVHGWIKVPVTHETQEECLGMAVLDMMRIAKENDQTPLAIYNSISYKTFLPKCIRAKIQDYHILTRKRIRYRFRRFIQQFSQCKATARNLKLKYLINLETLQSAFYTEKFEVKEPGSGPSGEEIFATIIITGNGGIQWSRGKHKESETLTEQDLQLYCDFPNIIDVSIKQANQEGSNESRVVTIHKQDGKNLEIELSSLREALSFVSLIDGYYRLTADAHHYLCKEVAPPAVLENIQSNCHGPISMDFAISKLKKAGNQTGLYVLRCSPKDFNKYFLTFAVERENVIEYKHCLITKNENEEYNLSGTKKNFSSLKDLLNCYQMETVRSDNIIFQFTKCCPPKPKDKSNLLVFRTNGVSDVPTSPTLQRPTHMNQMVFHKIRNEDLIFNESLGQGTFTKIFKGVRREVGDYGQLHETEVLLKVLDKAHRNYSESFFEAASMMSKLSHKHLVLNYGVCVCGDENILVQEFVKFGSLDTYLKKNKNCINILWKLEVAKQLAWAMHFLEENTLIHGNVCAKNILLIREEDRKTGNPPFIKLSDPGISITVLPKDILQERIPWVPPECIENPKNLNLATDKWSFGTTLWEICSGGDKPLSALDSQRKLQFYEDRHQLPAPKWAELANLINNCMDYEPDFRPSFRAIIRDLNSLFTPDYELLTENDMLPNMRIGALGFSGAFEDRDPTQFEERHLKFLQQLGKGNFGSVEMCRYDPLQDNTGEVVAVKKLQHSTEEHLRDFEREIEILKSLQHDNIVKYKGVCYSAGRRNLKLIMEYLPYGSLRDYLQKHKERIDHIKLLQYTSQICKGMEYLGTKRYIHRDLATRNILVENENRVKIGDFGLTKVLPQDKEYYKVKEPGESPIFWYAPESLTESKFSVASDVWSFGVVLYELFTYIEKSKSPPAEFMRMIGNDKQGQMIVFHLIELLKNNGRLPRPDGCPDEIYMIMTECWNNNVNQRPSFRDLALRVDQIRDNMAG

## CC1=C(O)C(=O)C=C2C1=CC=C1[C@@]2(C)CC[C@@]2(C)[C@@H]3C[C@](C)(C(=O)N4CCNCC4)CC[C@]3(C)CC[C@]12C
[1]
  inhibition: Active
A2780 [2]
  Activity: 18.7%
SK-OV-3 [3]
  inhibition: Dose-dependent-effect
A2780 [4]
  Activity: 5.3%
A2780 [5]
  Activity: 1.7%
A2780 [6]
  Activity: 67.7%
SK-OV-3 [7]
  Activity: 12.6%
SK-OV-3 [8]
  Activity: 33.8%
[9]
  inhibition: Active
A2780 [10]
  IC50: 0.14 µM
Mitochondrial membrane
  Activity: 49.5%
[11]
  inhibition: Active
A2780 [12]
  Activity: 41.7%
A2780 [13]
  Activity: 6.2%
SK-OV-3 [14]
  Activity: Active; Showed Moderate Reduction Activity
SK-OV-3 [15]
  Activity: 68.2%
A2780 [16]
  Activity: 1%
SK-OV-3 [17]
  Activity: 33.8%
A2780 [18]
  viability at 0.2 µM: 89.3%
A2780 [19]
  Activity: 74.6%
[20]
  inhibition: Dose-dependent-effect
[21]
  inhibition: Active; Showed Mild Inhibition Activity
SK-OV-3 [22]
  inhibition: Active
[23]
  inhibition: Dose-dependent-effect
SK-OV-3 [24]
  Activity: Active
[25]
  inhibition: Dose-dependent-effect
SK-OV-3 [26]
  Activity: 51.67%
[27]
  Activity: Non-toxic
SK-OV-3 [28]
  Activity: 6.7%
[29]
  inhibition: Active
SK-OV-3 [30]
  Activity: 36.7%
SK-OV-3 [31]
  Activity: 0.9%
A2780 [32]
  inhibition: Active

From ChEMBL document CHEMBL6083204, “Synthesis of a celastrol derivative as a cancer stem cell inhibitor through regulation of the STAT3 pathway for treatment of ovarian cancer” (RSC Med Chem, 2024)
